One data set concerns BCRP. Set-up: method as in PMID 27001813. The conditions noted are these: cited from earlier work.
Data set [1] deals with T1, ɣ-GT (Homo sapiens, UniProt P19440).
T1 construct: host or cells: ciPTEC (human conditionally immortalized proximal tubule epithelial cells)
As to the kind of experiment: ɣ-GT inhibition in ciPTEC. The settings on record: 100 μM acivicin pre-incubation 2.5 h, 2 μM ibrutinib, 4 h, intra- and extracellularly. It counts as cell-based. The method, then:
The formation of metabolites in medium and cells was monitored after 4 h. Ɣ-GT activity in human plasma and calf serum was measured on a Beckmann Coulter AU5800 (Fullerton, CA, USA) clinical chemistry analyzer, with a limit of quantitation of 1 U/L.

The test system of data set [2] is ɣ-GT. Details: method as in PMID 9178957. The conditions noted are these: cited from earlier work.
Data set [3] is described as follows: Ibrutinib and SMT-conjugate pharmacokinetics in human subjects (plasma of patients A and B). The conditions noted are these: for Concentration: omitted (no group).
Procedure: (§1) For analysis, 200 μL acetonitrile containing the internal standards was added to 100 μL sample. After mixing and centrifuging, 200 μL supernatant was transferred, and thereafter the solvent was partially evaporated. Before the samples were analyzed by ultra-high-performance liquid chromatography with mass spectrometer detection [21], 100 μL of mobile phase (water:acetonitrile:formic acid, 90:10:0.1 (v:v:v)) was added.
(§2) When no time was available at all, the sample was omitted. […] Pharmacokinetic (PK) data was analyzed using the PKNCA package (version 0.8.1) [22] for the statistical software R (version 3.4.2) [23] and RStudio (version 1.1.383) [24].
Data set [4] relates to ciPTEC. It counts as cell-based. The conditions noted are these: 2 μM ibrutinib with efflux transporter inhibitors, 48 h. As for the experimental part:
Cytotoxicity was evaluated using a Presto-blue assay as follows: cells were incubated for 1 h with Presto-blue solution (100 μL/well) at 37 °C and […] read using a Jasco FP8300 fluorometer (Tokyo, Japan; excitation wavelength: 560 nm, emission wavelength: 590 nm).

For data set [5] the following is noted: human, in vivo.
Procedure: as §1, §2
The nature of data set [6]: clinical. The settings on record: male, human, in vivo, 140 mg.
Procedure: as §1
Time-concentration data of three patients were analyzed. […] When no time was available at all, the sample was omitted. […] Pharmacokinetic (PK) data was analyzed using the PKNCA package (version 0.8.1) [22] for the statistical software R (version 3.4.2) [23] and RStudio (version 1.1.383) [24].
The nature of data set [7]: clinical. The settings on record: human, in vivo.
Procedure: as §1, §2
Data set [8] has as its system ciPTEC. The settings on record: ciPTEC, after 48 h.
Procedure: Medium and cell lysate samples were taken at 1, 2, 3 and 4 h. Each time point was measured in duplicate. Preincubation (t0) analyte concentrations in medium were also analyzed.

T1 sequence (P19440 whole entry): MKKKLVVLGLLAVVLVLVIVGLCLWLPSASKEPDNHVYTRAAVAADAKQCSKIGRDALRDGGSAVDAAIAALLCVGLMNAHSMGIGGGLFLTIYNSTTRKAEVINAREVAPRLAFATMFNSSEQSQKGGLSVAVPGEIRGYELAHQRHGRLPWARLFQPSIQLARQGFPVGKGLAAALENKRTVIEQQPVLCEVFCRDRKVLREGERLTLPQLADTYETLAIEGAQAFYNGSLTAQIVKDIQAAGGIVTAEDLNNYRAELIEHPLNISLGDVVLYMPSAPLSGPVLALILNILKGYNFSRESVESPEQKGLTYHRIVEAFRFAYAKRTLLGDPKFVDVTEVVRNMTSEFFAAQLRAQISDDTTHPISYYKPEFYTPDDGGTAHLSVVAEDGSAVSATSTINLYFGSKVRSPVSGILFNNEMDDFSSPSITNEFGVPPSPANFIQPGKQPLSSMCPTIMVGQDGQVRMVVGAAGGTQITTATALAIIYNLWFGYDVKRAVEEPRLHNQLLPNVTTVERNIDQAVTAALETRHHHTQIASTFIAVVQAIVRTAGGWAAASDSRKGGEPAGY

On to `C[C@@H](c1ncncc1F)[C@](O)(Cn1cncn1)c1ccc(F)cc1F` [Voriconazole], for which the “inhibition of BCRP” value in the data set on BCRP is “some inhibition”.

Turning to `N[C@H](C(=O)O)[C@@H]1CC(Cl)=NO1` [acivicin], the “effect on metabolism of IGSH in ciPTEC” value at ɣ-GT [1] is recorded as “blocked”. Also, the 99% effect concentration (IC99) (commonly the concentration needed for an effect of 99%) with ɣ-GT [2] was 50 µM.

Take `C=CC(=O)N1CCC[C@@H](n2nc(-c3ccc(Oc4ccccc4)cc3)c3c(N)ncnc32)C1` [Ibrutinib, reference compound]: the concentration at 1.4 h in [3] (human, in vivo, 420 mg, Concentration, patient A, sample ID 2, T 1.4 h, 1xdd 420mg, group abs) came to 6.6 nM. Also, the concentration at 0.5 h in data set [3] (human, in vivo, 420 mg, Concentration, patient A, sample ID 5, T 0.5 h, 1xdd 420mg, group abs) is 11.8 nM. Further, the concentration at 0.8 h in [3] (human, in vivo, 420 mg, Concentration, patient A, sample ID 6, T 0.8 h, 1xdd 420mg, group abs) is 14.6 nM; in [3] (human, in vivo, 420 mg, Concentration, patient A, sample ID 21, T 0.8 h, 1xdd 420mg, group abs), 143 nM; in data set [3] (human, in vivo, 560 mg, Concentration, patient A, sample ID 3, T 0.8 h, 1xdd 560mg, group abs) it was 3.5 nM. Also, the concentration at 22.7 h in [3] (human, in vivo, 420 mg, Concentration, patient A, sample ID 8, T 22.7 h, 1xdd 420mg, group trough) was 8.9 nM. In [3] (human, in vivo, 420 mg, Concentration, patient A, sample ID 10, T 22.2 h, 1xdd 420mg, group trough), the concentration at 22.2 h is 7 nM. The compound also gave a concentration at 22.6 h in data set [3] (human, in vivo, 420 mg, Concentration, patient A, sample ID 11, T 22.6 h, 1xdd 420mg, group trough) of 4.3 nM. The concentration at 2.5 h in data set [3] (human, in vivo, 420 mg, Concentration, patient A, sample ID 13, T 2.5 h, 1xdd 420mg, group max) was 683 nM. The concentration at 3.8 h in [3] (human, in vivo, 420 mg, Concentration, patient A, sample ID 14, T 3.8 h, 1xdd 420mg, group max) came to 151 nM; in [3] (human, in vivo, 560 mg, Concentration, patient B, sample ID 20, T 3.8 h, 1xdd 560mg, group max) it was 196 nM. For the same compound, the concentration at 23.3 h in data set [3] (human, in vivo, 420 mg, Concentration, patient A, sample ID 19, T 23.3 h, 1xdd 420mg, group trough) was determined as 5.5 nM. Besides, the concentration at 2.8 h in data set [3] (human, in vivo, 560 mg, Concentration, patient B, sample ID 4, T 2.8 h, 1xdd 560mg, group max) was 234 nM. For the same compound, the concentration at 4.1 h stood at 360 nM in data set [3] (human, in vivo, 560 mg, Concentration, patient B, sample ID 7, T 4.1 h, 1xdd 560mg, group max) and 497 nM in [3] (human, in vivo, 560 mg, Concentration, patient B, sample ID 23, T 4.1 h, 1xdd 560mg, group max). In addition, the concentration at 4.4 h in data set [3] (human, in vivo, 560 mg, Concentration, patient B, sample ID 9, T 4.4 h, 1xdd 560mg, group max) was 192 nM; in [3] (human, in vivo, 560 mg, Concentration, patient B, sample ID 24, T 4.4 h, 1xdd 560mg, group max), 323 nM. In [3] (human, in vivo, 560 mg, Concentration, patient B, sample ID 12, T 2.4 h, 1xdd 560mg, group max), this compound registered a concentration at 2.4 h of 551 nM. Further, the concentration at 3.9 h in [3] (human, in vivo, 560 mg, Concentration, patient B, sample ID 17, T 3.9 h, 1xdd 560mg, group max) turned out to be 578 nM. Also, the Concentration is given as 15.8 nM in data set [3] (patient A, sample ID 15, T NA, 1xdd 420mg) and 0.9 nM in data set [3] (patient A, sample ID 22, T NA, 1xdd 420mg). Further, the cell death result with ciPTEC [4] is on record as “up to 50%”. Moreover, in data set [5], the Cmax is reported as 370 ± 180 (151–683) nM. Besides, in data set [5], the Ctrough was 6.4 ± 2 (4.3–8.9) nM. In addition, in the data set “clinical [6]”, the AUC(0-t) (in general, exposure summed from dosing to a finite time, without extrapolation to infinity) stood at 0.325 µM·h. In addition, the time to peak (Tmax) – broadly, the time from dosing to the highest level – in the data set “clinical [7]” was 2.6 h. Also, the ibrutinib metabolized entry in the data set on ciPTEC [8] was “ca. 98%”.

These data come from article PMC7851014 (Investigational New Drugs, 2020).
